Like-named read-outs stand apart in the source and are kept apart here.
Test system: T. brucei lysate proteins
Type: binding, Trypanosoma brucei

Measured: fold change

CCCCCCOc1ccc(Cc2cnc(N)nc2N)cc1 [compound 1]
0.77: relative to vehicle control = 1, protein TB11.01.1290 14-3-3-I PROTEIN | relative to vehicle control = 1, protein TB427TMP.02.3120 MALIC ENZYME, PUTATIVE
0.95: relative to vehicle control = 1, protein TB427TMP.01.7490 HY[…], CONSERVED | relative to vehicle control = 1, protein TB427.02.6220 ADENOSINE TRANSPORTER 2, PUTATIVE | relative to vehicle control = 1, protein TB927.10.6670 DYNEIN LIGHT CHAIN, PUTATIVE | relative to vehicle control = 1, protein TB927.7.2500 […] SUBUNIT 1
0.55: relative to vehicle control = 1, protein TB427.06.3860 HY[…], CONSERVED
0.69: relative to vehicle control = 1, protein TB427.07.2570 MRNA […], PUTATIVE
0.96: relative to vehicle control = 1, protein TB11.01.0450 PROTEIN PHOSPHATASE 1, PUTATIVE | relative to vehicle control = 1, protein TB11.02.4700 14-3-3 PROTEIN | relative to vehicle control = 1, protein TB927.10.14980 INTR[…] PROTEIN IFT52, PUTATIVE | relative to vehicle control = 1, protein TB927.2.2440 […]-ATPASE SUBUNIT 6 | relative to vehicle control = 1, protein TB927.2.2510 HY[…], CONSERVED | vs vehicle control, protein TB09.160.3710 PRO[…] NUCLEAR ANTIGEN (PCNA), PUTATIVE | vs vehicle control, protein TB427.10.11760 PUMILIO/PUF RNA BINDING PROTEIN 6
0.89: relative to vehicle control = 1, protein TB427TMP.02.5450 GLUCOSE-REGULATED PROTEIN 78, PUTATIVE | relative to vehicle control = 1, protein TB427TMP.160.4910 FLAVOPROTEIN MONOOXYGENASE, PUTATIVE | relative to vehicle control = 1, protein TB427.06.2550 RNA-BINDING PROTEIN, PUTATIVE | relative to vehicle control = 1, protein TB927.1.2400 ALPHA TUBULIN
0.91: relative to vehicle control = 1, protein TB427TMP.02.4550 HY[…], CONSERVED | relative to vehicle control = 1, protein TB927.3.1120 GTP-BINDING NUCLEAR PROTEIN RTB2, PUTATIVE | vs vehicle control, protein TB427.01.1670 HY[…], CONSERVED | vs vehicle control, protein TB927.5.1630 HY[…], CONSERVED
1.1: relative to vehicle control = 1, protein TB927.10.5330 40S RIBOSOMAL PROTEIN S18, PUTATIVE
0.94: relative to vehicle control = 1, protein TB427TMP.01.3370 […] PROTEIN, PUTATIVE | relative to vehicle control = 1, protein TB427TMP.02.0750 T-COMPLEX PROTEIN 1, ZETA SUBUNIT, PUTATIVE | relative to vehicle control = 1, protein TB427.01.4050 PROTEIN P[…] EF-HAND DOMAINS (PPEF) | relative to vehicle control = 1, protein TB427.07.7500 THYMINE-7-HYDROXYLASE, PUTATIVE | relative to vehicle control = 1, protein TB427.08.3490 HY[…], CONSERVED | relative to vehicle control = 1, protein TB927.8.1510 ATP-DEPENDENT DEAD/H RNA HELICASE, PUTATIVE | vs vehicle control, protein TB427TMP.01.5690 DRBD4
0.99: relative to vehicle control = 1, protein TB09.160.3270 ATP-DEPENDENT DEAD BOX HELICASE, PUTATIVE | relative to vehicle control = 1, protein TB11.50.0007 DYNEIN LIGHT CHAIN LC8, PUTATIVE | relative to vehicle control = 1, protein TB427.03.4190 ENDOSOMAL INTEGRAL MEMBRANE PROTEIN, PUTATIVE | relative to vehicle control = 1, protein TB427.08.5460 FLAGELLAR CALCIUM-BINDING PROTEIN | relative to vehicle control = 1, protein TB427.10.12510 P-TYPE H+-ATPASE, PUTATIVE | relative to vehicle control = 1, protein TB927.10.13780 GLYCOGEN SYNTHASE KINASE 3 | relative to vehicle control = 1, protein TB927.4.5310 SERINE/THREONINE-PROTEIN KINASE A, PUTATIVE
0.88: relative to vehicle control = 1, protein TB11.02.1135 DYNEIN LIGHT CHAIN, PUTATIVE | relative to vehicle control = 1, protein TB427TMP.01.1400 GLYCYL-TRNA SYNTHETASE, PUTATIVE | relative to vehicle control = 1, protein TB427TMP.01.6880 CYTOSOLIC COAT PROTEIN, PUTATIVE | relative to vehicle control = 1, protein TB427.04.1510 PHOSPHOLIPID-TRA[…], PUTATIVE | relative to vehicle control = 1, protein TB427.05.3800 GLUTAMINE HYDROLYSING (NOT AMMONIA-DEPENDENT) […] PHOSPHATE SYNTHASE, PUTATIVE | relative to vehicle control = 1, protein TB427.10.13880 HY[…], CONSERVED | relative to vehicle control = 1, protein TB927.3.3490 HIGH MOBILITY GROUP PROTEIN, PUTATIVE
0.93: relative to vehicle control = 1, protein TB427TMP.02.1120 ADENYL[…], PUTATIVE | relative to vehicle control = 1, protein TB427.10.4940 NUCLEAR DBF2-RELATED KINASE | vs vehicle control, protein TB427.04.760 GAMMA-ADAPTIN 1, PUTATIVE
0.7: relative to vehicle control = 1, protein TB427.10.2350 PYRUVATE DEH[…] E3 BINDING PROTEIN, PUTATIVE
0.92: relative to vehicle control = 1, protein TB09.211.3540 GLYCEROL KINASE, GLYCOSOMAL | relative to vehicle control = 1, protein TB427TMP.01.7530 HY[…], CONSERVED | relative to vehicle control = 1, protein TB427TMP.160.4770 PROTEIN KINASE, PUTATIVE | relative to vehicle control = 1, protein TB427.03.3560 HY[…], CONSERVED | relative to vehicle control = 1, protein TB427.05.300 THYMINE-7-HYDROXYLASE, PUTATIVE | relative to vehicle control = 1, protein TB927.10.5500 HY[…], CONSERVED | relative to vehicle control = 1, protein TB927.6.2200 HY[…], CONSERVED | vs vehicle control, protein TB427.07.1420 HY[…], CONSERVED
0.9: relative to vehicle control = 1, protein TB427.08.3150 T-COMPLEX PROTEIN 1, GAMMA SUBUNIT, PUTATIVE | relative to vehicle control = 1, protein TB927.1.2330 BETA TUBULIN | relative to vehicle control = 1, protein TB927.6.4140 PAR[…] COMPONENT, PUTATIVE
0.78: relative to vehicle control = 1, protein TB927.5.1930 HY[…], CONSERVED
0.71: relative to vehicle control = 1, protein TB427.08.6110 HY[…], CONSERVED
0.75: relative to vehicle control = 1, protein TB427.05.4530 FATTY ACID ELONGASE, PUTATIVE
0.76: relative to vehicle control = 1, protein TB11.03.0815 DYNEIN LIGHT CHAIN | relative to vehicle control = 1, protein TB927.7.2700 NADH-CYTOCHROME B5 REDUCTASE, PUTATIVE
0.86: relative to vehicle control = 1, protein TB427TMP.01.1830 HY[…], CONSERVED | relative to vehicle control = 1, protein TB427.10.13110 DYNEIN LIGHT CHAIN, PUTATIVE
0.63: relative to vehicle control = 1, protein TB427.10.11930 NAD OR NADP DEPENDENT OXIDOREDUCTASE, PUTATIVE
0.82: relative to vehicle control = 1, protein TB427TMP.02.1460 HY[…], CONSERVED | relative to vehicle control = 1, protein TB427TMP.02.5660 HY[…], CONSERVED | relative to vehicle control = 1, protein TB427.07.2340 40S RIBOSOMAL PROTEIN S15, PUTATIVE | relative to vehicle control = 1, protein TB427.10.15180 […] PROTEIN, PUTATIVE
0.85: relative to vehicle control = 1, protein TB427TMP.03.0460 HY[…], CONSERVED | relative to vehicle control = 1, protein TB427.02.1170 RETRO[…] SPOT (RHS) PROTEIN, PUTATIVE
1: relative to vehicle control = 1, protein TB427.01.3830 GLUCOSE-6-PHOSPHATE ISOMERASE, GLYCOSOMAL | relative to vehicle control = 1, protein TB427.10.14910 SA[…] GLYCOPROTEIN, PUTATIVE | relative to vehicle control = 1, protein TB427.10.9800 60S RIBOSOMAL PROTEIN L22
0.87: relative to vehicle control = 1, protein TB09.160.4250 TR[…] | relative to vehicle control = 1, protein TB427TMP.03.0090 RIBOKINASE, PUTATIVE | relative to vehicle control = 1, protein TB927.2.3800 MRNA […], PUTATIVE
0.84: relative to vehicle control = 1, protein TB427.06.3650 ADP-RI[…], PUTATIVE
0.8: relative to vehicle control = 1, protein TB427.03.5420 PROTEIN TRANSPORT PROTEIN SEC24 | relative to vehicle control = 1, protein TB927.10.12840 MIT[…] PROTEIN, PUTATIVE | vs vehicle control, protein TB427.10.2290 CHAPERONE PROTEIN DNAJ, PUTATIVE
0.83: relative to vehicle control = 1, protein TB927.7.4480 ADENOSINE 5'-[…], PUTATIVE
0.79: relative to vehicle control = 1, protein TB927.4.4650 […] SYNTHASE, PUTATIVE
0.98: relative to vehicle control = 1, protein TB427.10.14140 PYRUVATE KINASE 1 | relative to vehicle control = 1, protein TB427.10.7630 HY[…], CONSERVED | relative to vehicle control = 1, protein TB927.10.4180 TFIIF-[…] PHOSPHATASE, PUTATIVE | vs vehicle control, protein TB11.01.4370 HY[…], CONSERVED
0.97: relative to vehicle control = 1, protein TB11.01.1270 NUCLEIC ACID BINDING PROTEIN, PUTATIVE | relative to vehicle control = 1, protein TB427TMP.22.0004 HY[…], CONSERVED | relative to vehicle control = 1, protein TB427.03.3160 POLY(A) POLYMERASE | relative to vehicle control = 1, protein TB427.05.1320 HY[…], CONSERVED | relative to vehicle control = 1, protein TB927.10.3280 60S RIBOSOMAL PROTEINS L38, PUTATIVE | relative to vehicle control = 1, protein TB927.7.4500 HY[…], CONSERVED

From paper PMC6199744, “Development of Chemical Proteomics for the Folateome and Analysis of the Kinetoplastid Folateome” (ACS Infectious Diseases, 2018)
